In patent US4241077A, “β-Oxo-3-thiophenepropionitrile and β-amino-2-(3)-thiopheneacrylonitriles” (American Cyanamid Company, priority 1979, dated 1980):

Columns and labels:
[1] = tested on: adjuvant induced arthritis (Freund's adjuvant) in rats; assay: Adjuvant induced arthritis in rats (oral, once daily days 0 through 13 post challenge); assay type: in vivo, Royal Hart, Wistar strain rats
Method: Groups of three Royal Hart, Wistar strain rats weighing 200±10 grams each were injected intradermally in the right hind paw with Freund's adjuvant (dried human tubercle bacilli in a mineral oil vehicle) at a dose of 2 mg./kg. of body weight. Test compounds were administered orally in a 1.5% starch vehicle at various doses once daily on days 0 through 13 post challenge. Control rats were treated in a similar manner, but given only starch vehicle. On the 14th and 21st day post challenge the diameter of the injected paw (primary lesion) was measured by micrometer caliper. The volume of inflamed paws were estimated from these measurements and the results are expressed as percent inhibition of swelling as compared to controls. At the same time, the other inflamed sites, such as ears, paws and tail (secondary lesions) were observed and each rat was graded as to degree of inflammation and swelling present. The grading is based on a scale of 0 to 24, where 0 represents a complete absence of induced arthritic nodules and 24 represents the maximum degree of inflammation. The mean grade for each treated group is calculated and the effects of each compound are expressed as percent inhibition of the control grade. Table I below records the results of tests conducted with the compounds of this invention and known anti-inflammatory agents. The compounds of this invention appear to suppress the progression of the arthritis and associated joint deterioration.

[2] = tested on: adjuvant induced experimental polyarthritis; settings: result in words; literature; cited from earlier work

SMILES: N#CC=C(N)c1ccsc1 [β-Amino-3-thiopheneacrylonitrile, β-amino-3-thiopheneacrylonitrile]
- Dead/Treated at 21 Days ([1]; oral 50 mg./kg. of body weight): 2/18
- Inhibition of Swelling (primary lesion) ([1]; oral 50 mg./kg., Day 14): 52%
- Mean Weight Gain ([1]; oral 50 mg./kg., Day 14): 47 grams
- Inhibition of Swelling (primary lesion) ([1]; oral 50 mg./kg., Day 21): 41%
- Mean Weight Gain ([1]; oral 50 mg./kg., Day 21): 54 grams

SMILES: N#CC=C(N)c1cccs1 [β-Amino-2-thiopheneacrylonitrile, β-amino-2-thiopheneacrylonitrile]
- Dead/Treated at 21 Days ([1]; oral 50 mg./kg. of body weight): 1/33
- % Inhibition of Control Grade (secondary lesion) ([1]; oral 50 mg./kg., Day 14): 21%
- Inhibition of Swelling (primary lesion) ([1]; oral 50 mg./kg., Day 14): 44%
- Mean Weight Gain ([1]; oral 50 mg./kg., Day 14): 54 grams
- % Inhibition of Control Grade (secondary lesion) ([1]; oral 50 mg./kg., Day 21): 6%
- Inhibition of Swelling (primary lesion) ([1]; oral 50 mg./kg., Day 21): 23%
- Mean Weight Gain ([1]; oral 50 mg./kg., Day 21): 50 grams
- Dead/Treated at 21 Days ([1]; oral 100 mg./kg. of body weight): 2/18
- % Inhibition of Control Grade (secondary lesion) ([1]; oral 100 mg./kg., Day 14): 25%
- Inhibition of Swelling (primary lesion) ([1]; oral 100 mg./kg., Day 14): 49%
- Mean Weight Gain ([1]; oral 100 mg./kg., Day 14): 45 grams
- % Inhibition of Control Grade (secondary lesion) ([1]; oral 100 mg./kg., Day 21): 16%
- Inhibition of Swelling (primary lesion) ([1]; oral 100 mg./kg., Day 21): 27%
- Mean Weight Gain ([1]; oral 100 mg./kg., Day 21): 51 grams
- Dead/Treated at 21 Days ([1]; oral 200 mg./kg. of body weight): 6/18
- % Inhibition of Control Grade (secondary lesion) ([1]; oral 200 mg./kg., Day 14): 80%
- Inhibition of Swelling (primary lesion) ([1]; oral 200 mg./kg., Day 14): 70%
- Mean Weight Gain ([1]; oral 200 mg./kg., Day 14): 36 grams
- % Inhibition of Control Grade (secondary lesion) ([1]; oral 200 mg./kg., Day 21): 57%
- Inhibition of Swelling (primary lesion) ([1]; oral 200 mg./kg., Day 21): 61%
- Mean Weight Gain ([1]; oral 200 mg./kg., Day 21): 53 grams

SMILES: N#CCC(=O)c1ccsc1 [β-Oxo-3-thiophenepropionitrile, β-oxo-3-thiophenepropionitrile]
- Dead/Treated at 21 Days ([1]; oral 50 mg./kg. of body weight): 1/18
- Inhibition of Swelling (primary lesion) ([1]; oral 50 mg./kg., Day 14): 61%
- Mean Weight Gain ([1]; oral 50 mg./kg., Day 14): 53 grams
- Inhibition of Swelling (primary lesion) ([1]; oral 50 mg./kg., Day 21): 26%
- Mean Weight Gain ([1]; oral 50 mg./kg., Day 21): 50 grams

SMILES: CCCCC1C(=O)N(c2ccccc2)N(c2ccccc2)C1=O [Phenylbutazone, reference compound]
- Inhibition of Swelling (primary lesion) ([1]; oral 18.8 mg./kg., Day 14): 31%
- Inhibition of Swelling (primary lesion) ([1]; oral 18.8 mg./kg., Day 21): 7%
- Inhibition of Swelling (primary lesion) ([1]; oral 37.5 mg./kg., Day 14): 56%
- Inhibition of Swelling (primary lesion) ([1]; oral 37.5 mg./kg., Day 21): 14%
- Inhibition of Swelling (primary lesion) ([1]; oral 75 mg./kg., Day 14): 62%
- Inhibition of Swelling (primary lesion) ([1]; oral 75 mg./kg., Day 21): 28%
- Inhibition of Swelling (primary lesion) ([1]; oral 150 mg./kg., Day 14): 75%
- Inhibition of Swelling (primary lesion) ([1]; oral 150 mg./kg., Day 21): 44%

SMILES: COc1ccc2c(c1)c(CC(=O)O)c(C)n2C(=O)c1ccc(Cl)cc1 [Indomethocin, reference compound]
- Inhibition of Swelling (primary lesion) ([1]; oral 0.25 mg./kg., Day 14): 30%
- Inhibition of Swelling (primary lesion) ([1]; oral 0.25 mg./kg., Day 21): 4%
- Inhibition of Swelling (primary lesion) ([1]; oral 0.5 mg./kg., Day 14): 40%
- Inhibition of Swelling (primary lesion) ([1]; oral 0.5 mg./kg., Day 21): 20%
- Inhibition of Swelling (primary lesion) ([1]; oral 1 mg./kg., Day 14): 46%
- Inhibition of Swelling (primary lesion) ([1]; oral 1 mg./kg., Day 21): 19%
- Inhibition of Swelling (primary lesion) ([1]; oral 2 mg./kg., Day 14): 51%
- Inhibition of Swelling (primary lesion) ([1]; oral 2 mg./kg., Day 21): 24%
- arthritic paw swelling; joint and bone deterioration [2]: prevent joint and bone deterioration

SMILES: CC(=O)Oc1ccccc1C(=O)O [Aspirin, reference compound]
- Inhibition of Swelling (primary lesion) ([1]; oral 50 mg./kg., Day 14): 23%
- Inhibition of Swelling (primary lesion) ([1]; oral 50 mg./kg., Day 21): 3%
- Inhibition of Swelling (primary lesion) ([1]; oral 100 mg./kg., Day 14): 36%
- Inhibition of Swelling (primary lesion) ([1]; oral 100 mg./kg., Day 21): 13%
- Inhibition of Swelling (primary lesion) ([1]; oral 200 mg./kg., Day 14): 48%
- Inhibition of Swelling (primary lesion) ([1]; oral 200 mg./kg., Day 21): 27%
- Inhibition of Swelling (primary lesion) ([1]; oral 400 mg./kg., Day 14): 73%
- Inhibition of Swelling (primary lesion) ([1]; oral 400 mg./kg., Day 21): 48%
